# Test results from PMC11249646, “Small-Molecule Disruptors of the Interaction between Calcium- and Integrin-Binding Protein 1 and Integrin αIIbβ3 as Novel Antiplatelet Agents” (ACS Pharmacology & Translational Science, 2024).
# Where two headings read alike, the source gives them in different places.
# Biological target: T1, CIB1 and αIIb interaction (CIB1-GST : F-αIIb peptide) (Homo sapiens, UniProt Q99828)
# T1 construct: made in house; host or cells: BL-21 plus RIL cells (E. coli)
# T1 sequence (Q99828 1-191): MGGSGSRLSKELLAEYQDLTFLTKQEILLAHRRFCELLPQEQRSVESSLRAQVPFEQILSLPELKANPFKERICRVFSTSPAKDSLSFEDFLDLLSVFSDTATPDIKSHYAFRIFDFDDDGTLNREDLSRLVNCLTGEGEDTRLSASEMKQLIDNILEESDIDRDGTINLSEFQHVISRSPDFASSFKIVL
# Assay: FP assay, 1536-well qHTS format (primary and confirmatory screen)
# Assay type: binding
# [1] = qHTS primary screen hits, Table S2, negative = inhibition
# [2] = qHTS primary screen hits, Table S2, negative sign = inhibitory curve, several classes where COUNT > 1
# [3] = qHTS primary screen hits, Table S2, read-out: IC50
# [4] = qHTS primary screen of LOPAC/NPACT libraries, negative = inhibition
# [5] = qHTS primary screen of LOPAC/NPACT libraries, negative sign = inhibitory curve
# [6] = qHTS primary screen of LOPAC/NPACT libraries, read-out: IC50
# [7] = qHTS FP screen hits, Table S2, negative = inhibition
# [8] = qHTS FP screen hits, Table S2, read-out: IC50
# [9] = qHTS primary screen hits, Table S2, negative sign = inhibitory curve
Structure (SMILES),Efficacy (%) [1],IC50 [3],Efficacy (%) [4],Curve Class [5],IC50 [6],Curve Class [2],further results
O=C(O)C(F)(F)F.O=C(O)c1ccc(O)c2ncc(N3CCN(Cc4ccccc4)CC3)cc12 [NCGC00241045-04],-24%,56.2 µM,–,–,–,-2.4,–
C=C(C)C(=O)OC1CC2(C)OC(=CC2=O)C(=C)CC2OC(=O)C(COC)C12 (stereo not shown) [NCGC00380534-01],-17%,28.2 µM,–,–,–,–,"Curve Class (qHTS primary screen hits, Table S2, NPACT library, negative sign = inhibitory curve): -1.4"
N#Cc1ccc(NS(=O)(=O)c2ccc(NC(=O)Cc3ccc(Cl)c(Cl)c3)cc2)cc1.O=C(O)C(F)(F)F [NCGC00253445-02],–,–,–,–,–,–,Efficacy (%) [7]: -18%; IC50 [8]: 3.5 µM
Cc1ccc(C)n1-c1ccccc1C(=O)O.O=C(O)C(F)(F)F [NCGC00274054-01],-40%,50.1 µM,–,–,–,-2.4,–
N[C@@H](CCC(=O)N[C@H](CSN=O)C(=O)NCC(=O)O)C(=O)O [NCGC00094150-03],–,–,-13%,-1.2,12.6 µM,–,–
CCN(CC)C(=S)SSC(=S)N(CC)CC [NCGC00016000-10],-67%,35.8 µM,–,–,–,–,–
CC(C)(C)CNc1ncnc2ccc(-c3ccc(CO)o3)cc12.O=C(O)C(F)(F)F [NCGC00238375-01],-42%,50.1 µM,–,–,–,-2.2,–
CN(C)c1cccc(-c2cnc(N3CCC(c4ncc[nH]4)CC3)s2)c1.O=C(O)C(F)(F)F [NCGC00187899-01],-34%,79.4 µM,–,–,–,–,Curve Class [9]: -2.4
O=C(Nc1nc(-c2ccccc2)cs1)c1ccncc1NS(=O)(=O)c1ccccc1.O=C(O)C(F)(F)F [NCGC00344903-01],-44%,44.7 µM,–,–,–,-2.2,–
CCCc1ccc(-c2csc(NC(=O)c3ccncc3NS(=O)(=O)c3ccc(C)cc3)n2)cc1.O=C(O)C(F)(F)F [NCGC00318955-01],-35%,50.1 µM,–,–,–,-2.4,–
Nc1nc2[nH]cnc2c(=S)[nH]1 [NCGC00263442-01],-56%,79.4 µM,–,–,–,–,Curve Class [9]: -3
NC(Cc1cc(O)c(O)cc1O)C(=O)O (stereo not shown) [NCGC00015503-06],–,–,–,–,–,–,Curve Class: -2.1; Efficacy (%): -97%; IC50 (IC50 [μM]): 35.5 µM
Cc1cc(C)nc(NC(=S)N2CCN(c3ccc4nonc4c3)CC2)c1.O=C(O)C(F)(F)F [NCGC00244156-01],-25%,50.1 µM,–,–,–,-2.4,–
Ic1ccccc1CNC1C2CCN(CC2)C1C(c1ccccc1)c1ccccc1.O=C(O)C(=O)O (stereo not shown) [NCGC00015587-03],–,–,-20%,-3,63.1 µM,–,–
Oc1cc(Cl)ccc1Oc1ccc(Cl)cc1Cl [NCGC00159417-06],-22%,100 µM,–,–,–,–,Curve Class [9]: -2.4
O=C(O)C(F)(F)F.Oc1cc(NCCN2CCOCC2)cc2cccnc12 [NCGC00183799-01],-45%,50.1 µM,–,–,–,-2.2,–
Cc1cc(S(=O)(=O)Nc2cnccc2C(=O)Nc2nc(-c3ccccc3)cs2)c(C)o1.O=C(O)C(F)(F)F [NCGC00345029-02],–,–,–,–,–,–,Efficacy (%) [7]: -46%; IC50 [8]: 38.1 µM
CCCCCCC/C=C\CCCCCCCCC(=O)O [NCGC00015764-04],–,–,-27%,-2.4,31.6 µM,–,–
CN1CCN(c2ccc(Nc3c4ccccc4nc4ccccc34)cc2)CC1.O=C(O)C(F)(F)F [NCGC00167823-03],-25%,56.2 µM,–,–,–,-2.4,–
O=C(O)C(F)(F)F.OC(CN1CCCCC1)Cn1c2ccc(Cl)cc2c2cc(Cl)ccc21 (stereo not shown) [NCGC00356030-01],-35%,79.4 µM,–,–,–,–,Curve Class [9]: -3

# Now from value to compound, other results behind:
Efficacy (%) [1],IC50 [3],Efficacy (%) [4],Curve Class [5],IC50 [6],Structure (SMILES),Curve Class [2],further results
-57%,89.1 µM,–,–,–,CCN(CC)CCCN(c1ccccc1)C1Cc2ccccc2C1.Cl [NCGC00167576-02],-3,–
-29%,50.1 µM,–,–,–,Cc1ccc(S(=O)(=O)Nc2cc(S(=O)(=O)c3ccc(C)cc3)c(O)c3cccnc23)cc1 [NCGC00161699-01],-2.4,–
–,–,-12%,-2.4,63.1 µM,O=C(Nc1ccc([N+](=O)[O-])cc1Cl)c1cc(Cl)ccc1O [NCGC00015735-08],–,–
-61%,15.2 µM,–,–,–,COc1cccc2c1C(=O)c1c(O)c3c(c(O)c1C2=O)C[C@@](O)(C(C)=O)C[C@@H]3O[C@H]1C[C@H](N)[C@H](O)[C@H](C)O1 [NCGC00024246-15],–,–
-100%,39.8 µM,–,–,–,Nc1ccn(C2CO[C@H](CO)O2)c(=O)n1 (stereo partly shown) [NCGC00183848-01],-3,–
-26%,50.1 µM,–,–,–,CCC(=O)NC(c1cccs1)c1ccc2cccnc2c1O (stereo not shown) [NCGC00182903-03],–,Curve Class [9]: -2.4
–,–,-28%,-2.4,56.2 µM,Cc1cc(O)cc(Oc2cc(C)c(C(=O)O)c(O)c2)c1 [NCGC00380115-01],–,–
-29%,39.8 µM,–,–,–,COc1ccc(/C=C/C(=O)Nc2ccccc2C(=O)O)cc1OC [NCGC00018185-09],-2.2,–
–,–,-11%,-1.4,17.8 µM,CN1CCC2(CCN3CCc4c(oc5ccccc45)C3C2)N(C)C1=O.Cl (stereo not shown) [NCGC00015699-03],–,–
-29%,56.2 µM,–,–,–,CCOC(=O)c1csc(-n2nc(-c3ccc(F)c(F)c3)cc2O)n1 [NCGC00356457-01],–,Curve Class [9]: -2.4
–,–,-28%,-2.4,44.7 µM,CC1(CO)CCCC2(C)C1C(OC(=O)c1ccccc1)C=C1C(=O)OCC12O (stereo not shown) [NCGC00380390-01],–,–
–,–,-30%,-2.4,50.1 µM,C=C1C(=O)O[C@@H]2C3=C(C)CCC[C@]3(C)CC[C@@]12O [NCGC00385722-01],–,–
-66%,22.4 µM,–,–,–,COc1ccc(C(=O)O[C@H]2C=COC=C3C=C4C(=O)N(C)C(=S)C(=O)N4[C@@H]32)cc1Oc1cc(C=O)ccc1O [NCGC00384899-01],–,Curve Class [9]: -2.2
–,–,-30%,-2.4,100 µM,CC(C)(O)CC(=O)NCCn1ccc2ncnc(Nc3ccc(Oc4cccc(C(F)(F)F)c4)c(Cl)c3)c21 [NCGC00346699-06],–,–
–,–,-29%,-2.4,20 µM,C=C1C(=O)O[C@@H]2[C@H]1[C@H](O)C[C@]1(C)[C@@H](O)CC=C(C)[C@@H]21 [NCGC00180848-02],–,–
-60%,56.2 µM,–,–,–,CN1CCN(CCC(=O)N2c3ccccc3Sc3ccc(C(F)(F)F)cc32)CC1.Cl [NCGC00160483-02],-2.4,–
-34%,50.1 µM,–,–,–,O=C(Nc1ccc(S(=O)(=O)N2CCOCC2)cc1)c1ccc(N2CCc3ccccc3C2)cc1 [NCGC00348032-01],-2.4,–
–,–,-24%,-2.4,56.2 µM,COc1cc(N2CCC(N3CCN(C)CC3)CC2)ccc1Nc1ncc(Cl)c(Nc2ccccc2S(=O)(=O)C(C)C)n1 [NCGC00238453-07],–,–
–,–,-27%,-1.4,25.1 µM,C=CC/C=C\C/C=C\CCCCCCCc1cccc(O)c1C(=O)O [NCGC00169660-02],–,–
-24%,79.4 µM,–,–,–,CC(=O)NC(c1ccco1)c1cc(F)c2cccnc2c1O (stereo not shown) [NCGC00183702-01],–,Curve Class [9]: -2.4
–,–,-28%,-2.4,56.2 µM,Cc1ccccc1NC(=O)Nc1ccc(CN2C(=O)N([C@@H](CC(C)C)C(=O)N[C@@H](CC(=O)O)c3ccccc3)C(=O)C2(C)C)cc1 [NCGC00386592-01],–,–
-52%,50.1 µM,–,–,–,Cl.O=c1cc(N2CCOCC2)oc2c(-c3ccccc3)cccc12 [NCGC00261395-01],–,Curve Class [9]: -2.2
-28%,50.1 µM,–,–,–,O=C(O)C1NCc2[nH]cnc2C1c1ccccc1 (stereo not shown) [NCGC00167998-01],–,Curve Class [9]: -2.4
-101%,1.1 µM,–,–,–,C[n+]1c2cc(N)ccc2cc2ccc(N)cc21 [NCGC00178831-03],–,Curve Class [9]: -1.3
-31%,79.4 µM,–,–,–,Cc1ccnc(NC(=S)N2CC[C@@H](Nc3cccc(C(F)(F)F)c3)C2)c1 [NCGC00241356-01],-2.4,–
–,–,-27%,-2.4,56.2 µM,C=C1C(=O)O[C@H]2C3=C(C)CCC[C@]3(C)C(=O)C[C@@H]12 [NCGC00168931-02],–,–
–,–,-13%,-1.2,25.1 µM,Cl.O=C(CCCCCN1CCN(c2ccccc2-c2ccccc2)CC1)NC1CCCc2ccccc21 (stereo not shown) [NCGC00186032-01],–,–
-86%,19.1 µM,–,–,–,CC(=O)[C@]1(O)Cc2c(O)c3c(c(O)c2[C@@H](O[C@H]2C[C@H](N)[C@H](O)[C@H](C)O2)C1)C(=O)c1ccccc1C3=O [NCGC00093976-06],–,–
–,–,-31%,-1.4,7.1 µM,N=C(N)c1ccc2c(c1)N/C(=C1/C=C(CC(=O)NC(CC(=O)O)C(=O)O)C=C(c3cc(S(N)(=O)=O)ccc3O)C1=O)N2 (stereo not shown) [NCGC00387860-01],–,–
